From BindingDB's records for doi:10.1021/jm040099a (Johnson & Johnson Pharmaceutical, 2005)

molecular target: Cyclin-dependent kinase/G2/mitotic-specific cyclin- 1 (Homo sapiens, UniProt P06493); experiment: Kinase Inhibition Assay; settings: pH 8; 30 °C
Protocol: (§1) The enzyme was assayed with a biotinylated peptide substrate and test compounds in the presence of 5 uM ATP/[gamma-33P]ATP in a streptavidin coated FlashPlate (Perkin-Elmer, Boston, MA). Inhibition of the enzymatic activity due to the compound was measured by observing a reduced amount of 33P-gamma-ATP incorporated into the immobilized peptide relative to untreated controls. Linear regression analysis of the percent of inhibition by the test compound was used to calculate IC50 values.

Cyclin-dependent kinase/G2/mitotic-specific cyclin- 1, sequence (P06493 whole entry): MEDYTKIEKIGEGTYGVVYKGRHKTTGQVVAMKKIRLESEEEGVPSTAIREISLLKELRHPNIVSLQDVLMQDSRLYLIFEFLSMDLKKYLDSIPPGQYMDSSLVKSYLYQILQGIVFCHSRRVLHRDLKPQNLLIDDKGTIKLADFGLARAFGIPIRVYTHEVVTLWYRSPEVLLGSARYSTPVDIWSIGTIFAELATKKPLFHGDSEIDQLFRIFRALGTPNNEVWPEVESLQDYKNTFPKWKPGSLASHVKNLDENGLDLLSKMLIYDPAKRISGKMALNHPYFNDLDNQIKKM
Cyclin-dependent kinase/G2/mitotic-specific cyclin- 1, sequence (P14635 whole entry, further chain): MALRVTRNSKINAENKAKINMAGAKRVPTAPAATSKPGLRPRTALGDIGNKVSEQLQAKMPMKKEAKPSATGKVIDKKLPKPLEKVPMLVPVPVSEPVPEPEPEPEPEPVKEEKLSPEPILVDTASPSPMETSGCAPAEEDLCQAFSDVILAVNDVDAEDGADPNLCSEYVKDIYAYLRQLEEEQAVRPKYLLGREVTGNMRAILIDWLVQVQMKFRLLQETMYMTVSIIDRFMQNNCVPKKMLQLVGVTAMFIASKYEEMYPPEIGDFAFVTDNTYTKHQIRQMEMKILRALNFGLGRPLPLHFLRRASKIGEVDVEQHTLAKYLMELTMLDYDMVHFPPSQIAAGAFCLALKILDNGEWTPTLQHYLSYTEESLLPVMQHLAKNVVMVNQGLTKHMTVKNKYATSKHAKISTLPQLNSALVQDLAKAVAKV

IC50, > 10 µM:
OCCCNc1cncc(-c2ncncc2Nc2cccc(Cl)c2)c1 [3-[[5-[5-[(3-Chlorophenyl)amino]-4-pyrimidinyl]-3-pyridinyl]amino]-1-propanol]

molecular target: Vascular endothelial growth factor receptor 2 (Rattus norvegicus, UniProt O08775); experiment: Kinase Inhibition Assay; settings: not given
Protocol: as §1

Vascular endothelial growth factor receptor 2, sequence (O08775 whole entry): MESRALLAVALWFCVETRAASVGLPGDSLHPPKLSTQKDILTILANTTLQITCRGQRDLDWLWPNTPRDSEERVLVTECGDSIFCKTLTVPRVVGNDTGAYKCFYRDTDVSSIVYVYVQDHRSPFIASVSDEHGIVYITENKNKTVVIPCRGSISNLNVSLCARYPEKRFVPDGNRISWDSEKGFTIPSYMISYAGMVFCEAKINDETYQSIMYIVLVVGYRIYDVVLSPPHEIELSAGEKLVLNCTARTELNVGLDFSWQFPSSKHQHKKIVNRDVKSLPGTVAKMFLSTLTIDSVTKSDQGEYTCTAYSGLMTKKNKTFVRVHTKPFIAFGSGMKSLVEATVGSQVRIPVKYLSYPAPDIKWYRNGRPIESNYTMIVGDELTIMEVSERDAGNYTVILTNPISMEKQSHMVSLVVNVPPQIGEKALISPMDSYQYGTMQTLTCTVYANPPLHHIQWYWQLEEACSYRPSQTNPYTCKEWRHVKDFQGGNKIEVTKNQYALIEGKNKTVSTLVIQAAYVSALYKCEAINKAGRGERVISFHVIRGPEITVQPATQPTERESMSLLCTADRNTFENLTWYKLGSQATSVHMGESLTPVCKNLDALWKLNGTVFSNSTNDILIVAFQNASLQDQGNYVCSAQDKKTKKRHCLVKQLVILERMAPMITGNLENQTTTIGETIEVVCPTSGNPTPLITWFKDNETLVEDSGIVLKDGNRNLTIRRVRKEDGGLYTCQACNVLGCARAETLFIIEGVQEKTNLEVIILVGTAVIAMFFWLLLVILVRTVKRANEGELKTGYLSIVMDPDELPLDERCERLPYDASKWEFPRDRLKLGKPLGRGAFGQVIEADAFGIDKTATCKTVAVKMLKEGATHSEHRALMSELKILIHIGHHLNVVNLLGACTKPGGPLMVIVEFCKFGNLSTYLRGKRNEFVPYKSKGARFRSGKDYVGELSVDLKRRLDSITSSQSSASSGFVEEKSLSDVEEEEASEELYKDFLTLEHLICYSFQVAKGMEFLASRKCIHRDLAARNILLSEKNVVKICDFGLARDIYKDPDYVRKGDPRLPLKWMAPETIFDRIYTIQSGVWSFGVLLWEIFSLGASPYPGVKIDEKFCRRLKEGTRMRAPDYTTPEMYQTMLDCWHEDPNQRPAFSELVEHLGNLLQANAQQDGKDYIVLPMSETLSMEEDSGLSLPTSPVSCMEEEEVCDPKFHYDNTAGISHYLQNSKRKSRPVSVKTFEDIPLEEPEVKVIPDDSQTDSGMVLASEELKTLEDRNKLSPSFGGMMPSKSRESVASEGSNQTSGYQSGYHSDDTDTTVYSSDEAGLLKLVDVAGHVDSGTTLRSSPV

IC50, > 10 µM:
OCCCNc1cncc(-c2ncc(Nc3cccc(Cl)c3)cn2)c1 [3-[(5-{5-[(3-chlorophenyl)amino]pyrimidin-2-yl}pyridin-3-yl)amino]propan-1-ol]
OCCCNc1ccc(-c2cncc(Nc3cccc(Cl)c3)n2)nc1 [3-{[6-[6-((3-Chlorophenyl)amino)pyrazin-2-yl]pyridin-3-yl]amino}propan-1-ol]
OCCCNc1cncc(-c2ncncc2Nc2cccc(Cl)c2)c1 [3-[[5-[5-[(3-Chlorophenyl)amino]-4-pyrimidinyl]-3-pyridinyl]amino]-1-propanol]
OCCCNc1cccc(-c2cncc(Nc3cccc(Cl)c3)n2)n1 [3-[(6-{6-[(3-chlorophenyl)amino]pyrazin-2-yl}pyridin-2-yl)amino]propan-1-ol]
OCCCNc1cncc(-c2cnc(Nc3cccc(Cl)c3)cn2)c1 [3-[[5-[5-[(3-chlorophenyl)amino]pyrazinyl]-3-pyridinyl]amino]-1-propanol]
OCCCNc1cncc(-c2cc(Nc3cccc(Cl)c3)ncn2)c1 [3-[(5-{6-[(3-chlorophenyl)amino]pyrimidin-4-yl}pyridin-3-yl)amino]propan-1-ol]
